# Results from PMC7830897 (Viruses, 2021).
# Several values for one entry are separate records, joined by “and”; a condition that tells them apart may be missing. Equal entries are not always repeated. Entries after “also recorded” stand apart in the source; their conditions may differ. Where two headings read alike, the source gives them in different places.
# How the values were obtained:
# human cardiomyocytes = assay: Human cardiomyocyte function (video-based contractility analysis); assay type: cell-based; conditions: 50 µM
# HBV [1] = assay: Antiviral efficacy in nude mice bearing HBV transfected AD38 xenografts; assay type: in vivo; conditions: for difference in T/V ratios (HBV titers) versus no-drug / placebo control group: day 45
# [2] = parameters: method as in earlier work; conditions: CD-1 mice, cited from earlier work
# [3] = humanized mice, 60 mg/kg per day PO for 10 weeks; cited from earlier work
# [4] = 2% FBS (used to measure potency in vitro), 10 µM
# [5] = Single-dose plasma pharmacokinetics in male cynomolgus monkeys; conditions: for AUCtotal: mean n = 3, extrapolated; for t1/2: mean n = 3, terminal
# [6] = Centrifree ultrafiltration device
# HBV [7] = system: HBV; parameters: method as in earlier work; conditions: 2% FBS, cited from earlier work
# [8] = cynomolgus monkey plasma (1 donor), 10 µM
# [9] = cited from earlier work
# [10] = human, 10 µM
# [11] = 1 mg/kg IV infusion, mean n = 3
# [12] = eight of the ten mice, GLP-26 55 mg/kg 3 times per week via feeding tube, to day 45
smiles,measurement,setting,value
COc1nc(N)nc2c1ncn2[C@@H]1O[C@H](COP(=O)(N[C@@H](C)C(=O)OCC(C)(C)C)Oc2cccc3ccccc23)[C@@H](O)[C@@]1(C)O (stereo partly drawn) [BMS-986094],resumption of cardiomyocyte beating,human cardiomyocytes,resumed after 8 h with an unstable rhythm
same,time until cardiomyocyte beating stopped,human cardiomyocytes,≤ 2 h
"C=C1[C@H](CO)[C@@H](O)C[C@@H]1n1cnc2c(=O)[nH]c(N)nc21 [ETV, entecavir, reference compound]",difference in T/V ratios (HBV titers) versus no-drug / placebo control group,HBV [1],3 log10
C#CCNC(=O)C(=O)c1c(C)c(C(=O)Nc2ccc(F)c(F)c2)n(C)c1C [GLP-26],terminal t1/2,[2]; IV 15 mg/kg,1.6 h
same,PO bioavailability,"[2]; PO 30 mg/kg, IV 15 mg/kg",61%
same,terminal t1/2,[2]; PO 30 mg/kg,> 6 h
same,tolerability,[3],safely administered
same,percent bound in 2% FBS,[4],17.9%
same,AUMC,[5]; [11],1058 ng·mL^−1·h^2
same,CL,[5]; [11],1.106 L·h/kg
same,Cmax,[5]; [11],2513 ng/mL
same,MRT,[5]; [11],1.2 h
same,Tmax,[5]; [11],24 min
same,Vss,[5]; [11],1.065 Lkg^−1
same,AUCtotal,[5]; 1 mg/kg IV infusion,986.6 ± 316.5 ng·h/mL and 986.6 ng·h/mL
same,t1/2,[5]; 1 mg/kg IV infusion,0.77 h
same,Cmax relative to in vitro EC50 versus HBV,[5]; 5 mg/kg PO,~ 30 times
same,AUMC,"[5]; 5 mg/kg PO, mean n = 3",7435 ng·mL^−1·h^2
same,Cmax,"[5]; 5 mg/kg PO, mean n = 3",380.7 ng/mL
same,MRT,"[5]; 5 mg/kg PO, mean n = 3",4.19 h
same,Tmax,"[5]; 5 mg/kg PO, mean n = 3",40.2 min
same,AUCtotal,[5]; 5 mg/kg PO,1660 ng·h/mL and 1660 ± 530 ng·h/mL
same,t1/2,[5]; 5 mg/kg PO,2.4 h and 2.44 h
same,signs of toxicity in monkeys,[5]; single IV (1 mg/kg) or PO (5 mg/kg) doses,appeared healthy prior to dosing and throughout the duration of the study; also recorded: No signs of toxicity were observed
same,non-specific adsorption,[6],approximately 2.6%
same,in vitro EC50 versus HBV,HBV [7]; converted from nM,~ 1.1 ng/mL
same,in vitro EC90 versus HBV,HBV [7]; converted from nM,~ 11 ng/mL
same,EC50,HBV [7]; read-out: in vitro EC50 versus HBV,3 nM
same,EC90,HBV [7]; read-out: in vitro EC90 versus HBV,30 nM
same,percent bound in plasma,[8],86.7%
same,difference in T/V ratios (HBV titers) versus no-drug / placebo control group,HBV [1],2.5 log10
same,mean rebound in T/V,HBV [1]; [12],13.8 fold
same,mean rebound in T/V (log10),HBV [1]; [12],1.14 log10
Nc1nc(=O)n([C@@H]2CS[C@H](CO)O2)cc1F [emtricitabine],percent bound (reported),[9],< 4%
same,percent bound in plasma,[10],0.8%
Cc1cccc(C)c1OCC(=O)N[C@@H](Cc1ccccc1)[C@@H](O)C[C@H](Cc1ccccc1)NC(=O)[C@H](C(C)C)N1CCCNC1=O [lopinavir],percent bound in plasma,[10],97.9%
